Marks after values point to notes of the source that are not given here.

The results in this text go back to PMC12518693, “Potent Fluorescent Probe for Target‐Engagement Studies of Allosteric Pyruvate Kinase Modulators” (Angewandte Chemie (International Ed. in English), 2025).

One data set can be described thus: Solubility. The class given is physicochemical.
For data set [1], the target named is T1, PKM2 (Homo sapiens, UniProt P14618). The data set is described as follows: Recombinant PKM2 activity assay (Kinase-Glo MAX). Set-up: made in house. Particulars: for PKM2 E max: recombinant PKM2; for EC50: recombinant PKM2 10 nM, 15 min pre-incubation, PEP 0.1 mM, ADP 0.2 mM. The class given is biochemical. How it is done:
As these compounds were binding to a known allosteric site on PK, the effects of ligands I–IV on the enzymatic activities of PKL and PKM2 were determined (Figure S2). The two isozymes were incubated with increasing concentrations of compounds before the addition of substrates PEP and adenosine diphosphate (ADP), and the reactions were monitored using a Kinase‐Glo MAX assay.
Figure S2. Effects of ligands I-IV on recombinant PK activities. PKL or PKM2 (10 nM) were pre-incubated with the compounds (0-100 µM) for 15 min following the addition of PEP (0.1 mM) and ADP (0.2 mM). The reactions were terminated by the addition of Kinase Glo-MAX reagent after 10 min, and the luminescence from each reaction was quantified using a plate reader. The activity values are expressed as a percentage of PK activity of the DMSO control. The potencies were calculated by best fit of the Hill equation to the luminescence data.^[2] (A) PKL titrations. (B) PKM2 titrations. Error bars represent the ±SE of replicates (n = 3).

The target in data set [2] is T2, PKL (Homo sapiens, UniProt P30613). Nature of the data set: Surface plasmon resonance, PKL. To be noted: for koff: read-out: k off SPR (PKL); for kon: read-out: k on SPR (PKL).
T2 sequence (P30613 1-543 isoform P30613-2): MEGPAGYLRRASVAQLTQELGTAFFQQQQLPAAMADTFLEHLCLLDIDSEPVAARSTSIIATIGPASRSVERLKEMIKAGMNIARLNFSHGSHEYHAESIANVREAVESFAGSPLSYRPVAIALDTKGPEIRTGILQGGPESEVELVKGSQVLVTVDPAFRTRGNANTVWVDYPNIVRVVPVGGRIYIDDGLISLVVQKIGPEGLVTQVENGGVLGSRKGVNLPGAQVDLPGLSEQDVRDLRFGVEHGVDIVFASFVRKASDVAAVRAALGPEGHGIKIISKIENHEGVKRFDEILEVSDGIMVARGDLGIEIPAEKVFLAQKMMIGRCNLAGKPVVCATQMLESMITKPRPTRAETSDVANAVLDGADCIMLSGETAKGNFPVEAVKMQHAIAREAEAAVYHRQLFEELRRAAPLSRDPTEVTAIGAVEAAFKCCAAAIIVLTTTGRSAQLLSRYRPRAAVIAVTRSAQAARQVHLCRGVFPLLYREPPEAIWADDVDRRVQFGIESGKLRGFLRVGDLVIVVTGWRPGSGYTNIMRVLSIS
Method: The surface was washed with 10 mM NaOH, 1M NaCl followed by immobilization of protein before subsequent deactivation by 1 M ethanolamine. Immobilization levels were typically 12000-16000 RU. The reference spot was treated as described, omitting the injection of PKL. Compound concentration series was injected over the immobilized protein in increasing concentrations using multi cycle (MCK) or single cycle kinetics (SCK) in running buffer (10 mM HEPES, 150 mM NaCl, 0.05% Tween20, 0.3% DMSO, pH 7.4). A 1:1 Langmuir interaction model is fitted to the experimental traces, enabling determination of kon, koff and Kd.
Data set [3] concerns the target T1, PKM2. Nature of the data set: Surface plasmon resonance, PKM2. Particulars: for K D (SPR, PKM2): 20 °C.
In data set [4] the target is T2, PKL. The data set is described as follows: Recombinant PKL activity assay (Kinase-Glo MAX). Particulars: for EC50: recombinant PKL 10 nM, 15 min pre-incubation, PEP 0.1 mM, ADP 0.2 mM; for PKL E max: recombinant PKL, above 100% activation, below 100% inhibition. On the set-up: co-crystallisation of full-length PKL (including the B-domain); 8xHis (TEV-cleavable) (N, cleaved yes); made in house; host or cells: E. coli T7 Express (NEB), pExp-NHis plasmid. The class given is biochemical. How it is done:
The two isozymes were incubated with increasing concentrations of compounds before the addition of substrates PEP and adenosine diphosphate (ADP), and the reactions were monitored using a Kinase‐Glo MAX assay.
Figure S2. […] The reactions were terminated by the addition of Kinase Glo-MAX reagent after 10 min, and the luminescence from each reaction was quantified using a plate reader. The activity values are expressed as a percentage of PK activity of the DMSO control. The potencies were calculated by best fit of the Hill equation to the luminescence data.^[2] (A) PKL titrations. (B) PKM2 titrations. Error bars represent the ±SE of replicates (n = 3).
The reaction mixture contained 0.2 mM ADP, 0.1 mM PEP, 5 nM PKL, 1% DMSO, and test compounds at concentrations ranging from 0 to 1 mM across 12 titration points. Prior to substrate addition, PKL and test compounds were pre-incubated for 15 minutes.
After the reaction, 5 µL of Kinase-Glo Max reagent was added to each well. […] For each data set, luminescence from the DMSO control was set as 100% activity, and luminescence from the protein blank (no PKL) as 0% activity. Percentage activity (E%) was calculated using the equation: […]
Titration data was fitted to the Hill equation in Origin to determine EC₅₀ values.

For data set [5], the target named is T2, PKL. The data set is described as follows: HepG2 PKM2 KO cell lysate PKL activity assay. To be noted: HepG2 PKM2 KO cells, 48 h, mean ± SE n=3.
Method: These predominantly express PKL.
HepG2 PKM2 KO cells (Synthego) were plated in 6 well plates at cell densities of 2 x 10^5 cells/well and incubated for 24 h at 37 °C and 5% CO2. Compounds were added to the cells in different concentrations (0.1, 1, 10 µM) and the cells were further incubated for 48 h. The control cells received DMSO as vehicle.
Cells were washed with PBS, lysed on ice with 200 µL/well PK assay buffer. […] Pyruvate kinase (PK) activity of the cell lysates (10 µg total protein) was analyzed by using the PK assay kit from abcam (ab83432) according to manufacturer´s instructions. The PKL activity in the cell lysates treated with the compounds was expressed as a percentage of the PK activity in the vehicle.
The target of the next data set is PKLNluc (Homo sapiens, UniProt P30613). Nature of the data set: Live-cell NanoBRET assay in HEK293 cells. The class given is cell-based. Set-up: host or cells: HEK293, transient transfection. Particulars: 20 nM tracer IV. The method, then: To investigate the intracellular interaction of tracer IV with PKLNluc, we prepared a mammalian expression construct, fusing Nluc to the N‐terminus of PKL. […] As a negative control for NanoBRET experiments, a construct expressing Nluc alone (without PKL) was also prepared.
Sequence of PKLNluc (P30613 1-543 isoform P30613-2): as above
Additionally, cell viability assays were conducted on cells transfected with either PKLNluc or Nluc plasmids and incubated with tracer IV (Figure S4b,c).
HEK293 cells were passed one day before transfection. The concentration of cells was adjusted to 2x10^5 cells/ml in Opti-MEM™ without phenol red (Invitrogen) supplemented with 1% FBS (Hyclone). Cells (4x10^6) were reversed transfected with 1 µg of PKLNluc plasmid or 1 µg Nluc plasmid and 9 µg of carrier DNA (Promega) using 30 µL of Fugene HD transfection reagent (Promega). […] Work solutions (100x) of tracer IV were prepared from DMSO stocks and further diluted to 20x concentrations with Tracer buffer (Promega). Twenty-five hours after transfection, the cells were treated with 5 µL/well of each of 20x concentrations of the tracer (final concentrations in the assay were in the range 0.001-1 µM, depending on the experiment). Thereafter, 10 µL of 10x solutions of competitors (diluted in Opti-MEM™ medium from stocks of 100x prepared in DMSO) were added to some sets of cells, while the other set received only Opti-MEM™ containing 1% DMSO. The cells were incubated for 2 h at 37°C (5% CO2). […] For each sample well, BRET ratios were calculated using the following formula:
BRET ratio mBU= AcceptorSDonorS-AcceptorNTDonorNT
Where AcceptorS is the luminescence intensity of the sample well at 550 nm, DonorS is the luminescence of the sample well at 450 nm, and AcceptorNT and DonorNT are the luminescence of the no-tracer control at 550 nm and 450 nm respectively.

The target of the next data set is PKLwt (Homo sapiens, UniProt P30613). Nature of the data set: Fluorescence indicator displacement (FID) competition assay.
Sequence of PKLwt (P30613 1-543 isoform P30613-2): as above
Setting [6] is: K D SPR (PKL), 20 °C, mean ± SE n=3.

T1 sequence (P14618 whole entry): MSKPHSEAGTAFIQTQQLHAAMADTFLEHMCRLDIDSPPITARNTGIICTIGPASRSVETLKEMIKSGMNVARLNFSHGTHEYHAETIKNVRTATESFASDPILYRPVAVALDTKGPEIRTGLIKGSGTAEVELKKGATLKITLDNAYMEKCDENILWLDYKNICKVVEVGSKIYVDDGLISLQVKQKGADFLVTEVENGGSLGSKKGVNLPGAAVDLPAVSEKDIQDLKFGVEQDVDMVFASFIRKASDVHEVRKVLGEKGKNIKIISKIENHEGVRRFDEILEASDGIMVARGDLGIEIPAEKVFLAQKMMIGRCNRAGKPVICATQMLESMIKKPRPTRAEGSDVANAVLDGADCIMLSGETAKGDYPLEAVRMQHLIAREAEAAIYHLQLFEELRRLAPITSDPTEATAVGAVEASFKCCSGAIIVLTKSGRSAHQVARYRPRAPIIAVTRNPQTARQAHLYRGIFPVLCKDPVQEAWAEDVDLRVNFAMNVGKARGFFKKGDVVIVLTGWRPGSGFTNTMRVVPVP
Method for PKLwt: Additionally, we performed fluorescence competition assays with these competitors against IV, using recombinant PKLwt (Figure 6b). […] A combined 2x PKL-tracer IV solution was prepared in Tris-HCl buffer containing 1% DMSO, with final concentrations of 0.2 µM PKL and 0.1 µM tracer IV.

As for `CN(C)c1ccc(S(=O)(=O)c2ccc3c(=O)n(CC(C)(C)C)ncc3c2)c2nonc12` [Compound III, 6-((7-(Dimethylamino)benzo[c][1,2,5]oxadiazol-4-yl)sulfonyl)-2-neopentylphthalazin-1(2H)-one], in the data set “Solubility”, the solubility entry was “poor”. In addition, at PKM2 [1], the “PKM2 E max” value is reported as 323 % of vehicle and the 50% effective concentration (EC50) is greater than 10000 nM. In addition, the “K D SPR (PKL)” value on PKL [2] (20 °C, mean ± SE n=3) is “no binding”. The molecule also came in with a Kd at PKL [2] (setting [6]) greater than 100000 nM. Moreover, on PKM2 [3], the Kd is greater than 100000 nM and the “K D (SPR, PKM2)” value is on record as “no detectable binding”. Moreover, on PKL [4] (>50 µM), the “effect on PKL at higher concentrations” value is “weak inhibition”. For the same molecule, on PKL [4], the EC50 stood at 86000 nM and the “PKL E max” value is on record as 50 ^a) % vehicle.
`CN(C)c1ccc(S(=O)(=O)c2ccc3c(=O)n(Cc4ccccc4)ncc3c2)c2nonc12` [Compound II, 2-Benzyl-6-((7-(dimethylamino)benzo[c][1,2,5]oxadiazol-4-yl)sulfonyl)phthalazin-1(2H)-one]: the solubility result in “Solubility” is recorded as “poor”. At PKM2 [1], the “PKM2 E max” value is recorded as 572 % of vehicle. The molecule also displayed a Kd on PKL [2] (setting [6]) of 36200 ± 289 nM. Further, the “weaker PKL affinity relative to compound I” value at PKL [2] (SPR K D ratio) worked out at 250 fold. Besides, on PKL [2], the koff was 0.00833 s⁻¹ and the kon was 167 M⁻¹ s⁻¹. Also, on PKM2 [3], the Kd was greater than 100000 nM and the “K D (SPR, PKM2)” value is reported as “no detectable binding”. On PKL [5], the “PKL activities (% of vehicle) 0.1 µM” value was 112 ± 1 % of vehicle, the “PKL activities (% of vehicle) 1 µM” value is given as 126 ± 1 % of vehicle and the “PKL activities (% of vehicle) 10 µM” value is reported as 133 ± 6 % of vehicle. Further, at PKL [4], the EC50 was 700 nM and the “PKL E max” value was 120 % vehicle.
With `O=c1c2ccc(S(=O)(=O)c3ccccc3)cc2cnn1Cc1ccccc1` [Compound I, 2-Benzyl-6-(phenylsulfonyl)phthalazin-1(2H)-one, reference compound], at PKM2 [1], the “PKM2 E max” value is listed as 596 % of vehicle and the concentration for a half-maximal effect (EC50) is 25 nM. The molecule also returned a Kd at PKL [2] (setting [6]) of 133 ± 8 nM. Also, at PKL [2], the koff was 0.00533 s⁻¹ and the kon was 41200 M⁻¹ s⁻¹. The same molecule registered a Kd on PKM2 [3] of 33 ± 1 nM. Moreover, at PKM2 [3] (read-out: k off SPR (PKM2)), the koff is less than 0.00055 s⁻¹. In addition, the kon at PKM2 [3] (read-out: k on SPR (PKM2)) is 4500 M⁻¹ s⁻¹. Moreover, at PKL [5], the “PKL activities (% of vehicle) 0.1 µM” value is 115 ± 2 % of vehicle, the “PKL activities (% of vehicle) 1 µM” value is 189 ± 3 % of vehicle and the “PKL activities (% of vehicle) 10 µM” value was 330 ± 3 % of vehicle. In addition, at PKL [4], the EC50 stood at 15 nM and the “PKL E max” value is 162 % vehicle.
As for `Nc1cccc(S(=O)(=O)N2CCCN(S(=O)(=O)c3ccc4c(c3)OCCO4)CC2)c1` [DASA-58, reference compound], the Kd turned out to be 170 nM at PKL [2] (K D (SPR, PKL), 20 °C, recombinant PKL); 245 nM at PKLNluc (Figure 6, read-out: K D (cell), Cheng–Prusoff corrected); 179 nM at PKLwt. For the same molecule, the EC50 on PKLNluc (2 h 37 °C, live HEK293, Figure 6a, read-out: EC50 displacement of tracer IV) turned out to be 512 nM; at PKLwt it was 394 nM.
